Experimental data published in patent US20040009185A1, “Enhancing the immune response to an antigen by presensitzing with an inducing agent prior to immunizing with the agent and the antigen” (priority 2003, published 2004).

Assays:
[1] = test system: gp100 (native or modified); format: in vivo, A2Kb transgenic mice; conditions: priming with 20.0 μg toxoid i.m., then ALVAC gp100 recombinant given as a mixture with the toxoid; FIGS. 7 and 8
CEA = format: in vivo, A2Kb transgenic mice; conditions: priming with 20.0 μg toxoid i.m., then ALVAC CEA recombinant given as a mixture with the toxoid; FIG. 6
modified gp100 = test system: modified gp100; design: species or system A2Kb transgenic mice; conditions: mouse, in vivo

Row | Substance | immune response to the modified gp100 and gp100 antigens (reactive T cells, IFN gamma ELISPOT) [1] | immune response to the CEA antigen (reactive T cells, IFN gamma ELISPOT) (CEA) | immune response to the immunogen modified gp100 (gp100-specific CTL response) (modified gp100)
1 | diphtheria toxoid | clearly enhanced | clearly enhanced | –
2 | tetanus toxoid | clearly enhanced | clearly enhanced | clearly enhanced
